Laboratory results: patent publication US20220118116A1, “ADHESIVE/ADSORPTION SWITCH ON NANOPARTICLES TO INCREASE TUMOR UPTAKE AND DELAY TUMOR CLEARANCE” (The Johns Hopkins University, priority 2019, published 2022)
Like-named read-outs stand apart in the source and are kept apart here.

Key:
[1] = system: spontaneous MDA-MB-231 axillary lymph node (ALN) metastases; experiment: Growth control of spontaneous TNBC metastases in vivo (cisplatin); conditions: 7.5 mg/Kg i.v., three times in five-day intervals
[2] = Leite et al., 2012; cited from earlier work
MDA-MB-231 (PRI3) = experiment: IC50 on cell monolayers (MTT assay); assay type: cell-based, human; conditions: 6-hour incubation, read-out: IC50 of free cisplatin
Description: (§1) To determine the IC50 of liposomal cisplatin and of free cisplatin, 20,000 cells per well were plated in 96-well plates. A range of concentrations of sterilized liposomes (containing or not cisplatin) or of free cisplatin was added to the wells mixed in media (with 10% FBS) at pH 7.4 and pH 6.5. Upon completion of a 6-hour incubation, cells were washed twice with PBS, and 10% FBS-supplemented fresh media was then added to wells. After two doubling times an MTT assay (Promega, Madison, Wis.) was used (following the vendor's instructions) to evaluate percent cell viability. Absorbance was read at 570 nm.
as §1, with “sterile” for “sterilized”, “6 hour” for “6-hour”

MDA-MB-436 (ATCC) = experiment: IC50 on cell monolayers (MTT assay); assay type: cell-based, human; conditions: 6-hour incubation, read-out: IC50 of free cisplatin
Description: as §1
as §1, with “sterile” for “sterilized”, “6 hour” for “6-hour”

MDA-MB-231 (ALN2) = experiment: IC50 on cell monolayers (MTT assay); assay type: cell-based, human; conditions: 6-hour incubation, read-out: IC50 of free cisplatin
Description: as §1
as §1, with “sterile” for “sterilized”, “6 hour” for “6-hour”

MDA-MB-231 (LUNG1) = experiment: IC50 on cell monolayers (MTT assay); assay type: cell-based, human; conditions: 6-hour incubation, read-out: IC50 of free cisplatin
Description: as §1
as §1, with “sterile” for “sterilized”, “6 hour” for “6-hour”

MDA-MB-231 (ATCC) = experiment: IC50 on cell monolayers (MTT assay); assay type: cell-based, human; conditions: 6-hour incubation, read-out: IC50 of free cisplatin
Description: as §1
as §1, with “sterile” for “sterilized”, “6 hour” for “6-hour”

N.N.[Cl][Pt][Cl] [free cisplatin, cis-diamminedichloroplatinum (II)]
animal survival [1]: shortest animal survival
animals euthanized because of weight loss [1]: 100%
reported MTD [2]: 7.5 mg/kg
IC50 (MDA-MB-231 (PRI3); pH 6.5): 37.7 ± 13.4 µM
IC50 (MDA-MB-231 (PRI3); pH 7.4): 32.4 ± 7.8 µM
IC50 (MDA-MB-436 (ATCC); pH 6.5): 3.2 ± 0.73 µM
IC50 (MDA-MB-436 (ATCC); pH 7.4): 2.46 ± 0.9 µM
IC50 (MDA-MB-231 (ALN2); pH 6.5): 40.2 ± 7.4 µM
IC50 (MDA-MB-231 (ALN2); pH 7.4): 39.2 ± 5.9 µM
IC50 (MDA-MB-231 (LUNG1); pH 6.5): 42.6 ± 6.2 µM
IC50 (MDA-MB-231 (LUNG1); pH 7.4): 40.2 ± 6.4 µM
IC50 (MDA-MB-231 (ATCC); pH 6.5): 47.7 ± 4.4 µM
IC50 (MDA-MB-231 (ATCC); pH 7.4): 45.2 ± 8.2 µM
